Source: patent publication US5126348A, “Bioavailability enhancers” (priority 1989, dated 1992)
Read-outs that look alike come from different tables or passages of the source. Blank lines part the entries; values can stand above or below the molecule they belong to.

Tests used:
[1] = cited from earlier work
[2] = cited from earlier work; remark: listed apart in the source
[3] = cited from earlier work; remark: listed apart in the source
[4] = Theophylline blood levels as a function of time after oral administration, with and without nicotinic acid (Example 1)
Excerpt: FIG. 1 is a graph showing theophylline blood levels as a function of time after administration, comparing theophylline in combination with nicotinic acid with theophylline alone.

[5] = set-up: species or system beagle dog; conditions: dog, in vivo
[6] = in vivo
Excerpt: Venous blood samples were taken at time intervals listed below. […] After administration to the human volunteer, blood samples were taken at the same time intervals as the previous test. Relative salicylic acid concentrations of the samples were compared using fluorescence units as determined by spectrofluorometer.

Structure (SMILES): NC(=O)c1cccnc1 [niacinamide]
vasodilation or flushing ([1]; niacinamide form): does not cause the vasodilation or flushing

Structure (SMILES): CC(C)NCC(O)COc1cccc2ccccc12 (stereo not shown) [propranolol]
bioavailability with hydralazine [2]: increased bioavailability

Structure (SMILES): O=C(O)c1cccnc1 [nicotinic acid]
toxicity ([1]; even at high dosages): relatively harmless
low density lipids and cholesterol in the blood ([1]; high doses (3-6 g/day)): lowers
peripheral vascular resistance ([1]; high doses (3-6 g/day)): decreases
stroke volume of the heart ([1]; high doses (3-6 g/day)): increases
tolerated dosage ([1]; human, in vivo): up to 6 grams per day
effects on blood pressure ([1]; in vivo): only minor effects
heart rate and cardiac output ([1]; in vivo): increases
peripheral blood flow ([1]; in vivo): increases
flushing effect with acetylsalicylic acid ([1]; with acetylsalicylic acid): reduced
absorption with food ingestion [3]: not affected

Structure (SMILES): Cn1c(=O)c2[nH]cnc2n(C)c1=O [Theophylline, theophylline]
concentration at 29 min ([4]; human, in vivo, po, 300 mg): < 500 ng/mL
concentration at 1.05 h ([4]; human, in vivo, po, 300 mg): 2200 ng/mL
concentration at 1.55 h ([4]; human, in vivo, po, 300 mg): 4400 ng/mL
concentration at 121 min ([4]; human, in vivo, po, 300 mg): 5300 ng/mL
concentration at 2.5 h ([4]; human, in vivo, po, 300 mg): 7000 ng/mL
concentration at 184 min ([4]; human, in vivo, po, 300 mg): 7200 ng/mL
Blood levels of theophylline ([4]; time after administration 0, oral, 300 mg theophylline, with or without 100 mg niacin): < 50 ng/mL

absorption induced by reserpine [5]: near-complete absorption
elimination kinetics, reserpine-treated vs. non-pretreated dogs [5]: similar
time of peak plasma concentrations of SA, reserpine-treated vs. non-pretreated dogs [5]: at the same time in both tests
% of maximum concentration ([5]; 10 min): 24%
plasma SA concentration ([5]; 10 min): 19.9 µg/mL
% of maximum concentration ([5]; 20 min): 47%
% of maximum concentration ([5]; 30 min): 70%
plasma SA concentration ([5]; 60 min): 72.8 µg/mL
% of maximum concentration ([5]; 120 min): 100%
plasma SA concentration (max) ([5]; 120 min): 81.4 µg/mL
Total area under the plasma level curve, increase over non-pretreated dogs ([5]; 480 min): 13.2%
total AUC, increase ([5]; iv): 14.5%
% of Dose of ASA Absorbed (using IV ASA as 100% absorption) ([5]; po): 87.5%
bioavailability of aspirin with nicotinic acid [6]: enhanced
Structure (SMILES): CC(=O)Oc1ccccc1C(=O)O [ASA, acetylsalicylic acid]
plasma concentration of SA, reserpine-treated vs. non-pretreated dogs [5]: considerably higher at each time interval
